22 molecules from PubChem BioAssay (NCI) can be followed below.

≈ marks a conversion by molar mass, not a printed value.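 Test compounds were applied to cells in 96-well plates for 48 hours at 5 doses. GI50 is the concentration that inhibits growth by half. TGI: total growth inhibition.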

Test systems include COLO 205 colon; IGROV1 ovarian; MOLT-4 leukemia; NCI-H522 lung; PC-3 prostate; SK-MEL-28 melanoma; SNB-75 CNS; U251 CNS; NCI-H226 lung; SR leukemia.
Experiment in all cases: NCI anticancer screen, dose series, 48 h

With `S=C(S)NCC1CCC(CNC(=S)S)CC1` (centres undefined), the TGI with COLO 205 colon is greater than 100 µM; in the experiment with IGROV1 ovarian, 33.9 µM; in the experiment on MOLT-4 leukemia, 65.2 µM; in the experiment on NCI-H522 lung, 28 µM; in the experiment on PC-3 prostate, 37.5 µM; in the experiment on SK-MEL-28 melanoma, greater than 100 µM. For the same molecule, the TGI was greater than 100 µM in the experiment on SNB-75 CNS and 43 µM in the experiment on U251 CNS.
For the molecule `Cc1ccc(N=Nc2c(C)c(C#N)c(=S)n(C3OC(CO)C(O)C(O)C3O)c2-c2ccccc2)cc1` (centres undefined), the TGI is 57.4 µM in the experiment with COLO 205 colon; greater than 100 µM in the experiment with IGROV1 ovarian; 38.9 µM in the experiment with MOLT-4 leukemia; 55.6 µM in the experiment on PC-3 prostate; 43 µM in the experiment on SK-MEL-28 melanoma; 55.2 µM in the experiment with SNB-75 CNS. Moreover, the TGI in the experiment with U251 CNS is 30.8 µM.
For `CC(=O)OCC=C(CCl)CCC(Br)C(C)(C)Br` (mixture of isomers), the TGI in the experiment with COLO 205 colon, in the experiment with IGROV1 ovarian, in the experiment on MOLT-4 leukemia, in the experiment with NCI-H226 lung, with NCI-H522 lung and with PC-3 prostate was greater than 10 µM each time. The TGI in the experiment on SK-MEL-28 melanoma, in the experiment on SNB-75 CNS and in the experiment on U251 CNS was greater than 10 µM in each case.
Regarding `C#CCn1c(=O)c(C#N)c(O)c2cc3ccccc3nc21`, the TGI in the experiment with COLO 205 colon, in the experiment with IGROV1 ovarian, in the experiment on MOLT-4 leukemia, in the experiment on NCI-H226 lung, in the experiment on NCI-H522 lung and in the experiment with SK-MEL-28 melanoma was greater than 100 µM throughout. Moreover, the TGI in the experiment on SNB-75 CNS and in the experiment on U251 CNS was greater than 100 µM throughout.
Consider `Cc1ccc(S(=O)(=O)c2c(O)c3ccccc3n(C)c2=O)cc1`, for which the TGI with COLO 205 colon, with IGROV1 ovarian, in the experiment with NCI-H226 lung, with PC-3 prostate, in the experiment with SK-MEL-28 melanoma and in the experiment with SNB-75 CNS was greater than 100 µM in each case. The molecule further yielded a TGI with U251 CNS greater than 100 µM.
On to `C[n+]1c2ccccc2c(C(=O)Nc2ccc(S(=O)(=O)N=C(N)N)cc2)c2ccccc21`, for which the TGI with COLO 205 colon, in the experiment with IGROV1 ovarian, in the experiment on MOLT-4 leukemia, with NCI-H226 lung, with NCI-H522 lung and in the experiment on PC-3 prostate was greater than 100 µM throughout. Also, the TGI with SK-MEL-28 melanoma, in the experiment with SNB-75 CNS and in the experiment with U251 CNS was greater than 100 µM in each case.
For `COc1cc(S(=O)(=O)Nc2ccc(C3=NNC(c4ccccc4)C3)cc2)ccc1F` (centres undefined), the GI50 in the experiment with COLO 205 colon was 51.4 µM; with IGROV1 ovarian it was 93.8 µM; in the experiment with MOLT-4 leukemia, 48.3 µM; in the experiment with NCI-H226 lung, 21.2 µM; with NCI-H522 lung it was 38 µM; in the experiment on PC-3 prostate, 29.8 µM. For the same molecule, the GI50 in the experiment with SK-MEL-28 melanoma was greater than 100 µM; in the experiment on SNB-75 CNS it was 23.9 µM; in the experiment on U251 CNS it was 43.5 µM. Besides, the TGI in the experiment on COLO 205 colon is greater than 100 µM; in the experiment on IGROV1 ovarian, greater than 100 µM; in the experiment with MOLT-4 leukemia, greater than 100 µM; in the experiment with NCI-H226 lung, 61.3 µM; with NCI-H522 lung, greater than 100 µM; in the experiment on PC-3 prostate it was greater than 100 µM. For the same molecule, the TGI in the experiment on SK-MEL-28 melanoma, in the experiment with SNB-75 CNS and in the experiment on U251 CNS was greater than 100 µM in each case.
Take `O=C1C(Br)=C(c2ccccc2)S(=O)c2ccccc21` (centres undefined): the TGI with COLO 205 colon worked out at 3.95 µM; in the experiment on IGROV1 ovarian, 23.1 µM; in the experiment with NCI-H226 lung it was 40.7 µM; in the experiment on NCI-H522 lung it was 3.35 µM; with PC-3 prostate, 21.2 µM; in the experiment with SK-MEL-28 melanoma, 42.1 µM. In addition, the TGI in the experiment on SNB-75 CNS came to 31.1 µM; in the experiment on U251 CNS it was 22.8 µM.
As to `COc1cc(/C=C2/N=C(c3ccccc3)N(C3=NNC4(C(=O)N3)c3ccccc3-c3ccccc34)NC2=O)ccc1O`, the GI50 in the experiment on COLO 205 colon is 55.2 µg/mL; in the experiment on IGROV1 ovarian, 30.4 µg/mL; in the experiment on MOLT-4 leukemia, 35.7 µg/mL; in the experiment with PC-3 prostate, 29.5 µg/mL; with SK-MEL-28 melanoma it was 31.3 µg/mL; in the experiment with SNB-75 CNS, 23.4 µg/mL. The GI50 was 48.3 µg/mL (≈ 86.8 µM) with SR leukemia and 24.5 µg/mL in the experiment with U251 CNS. Further, the TGI in the experiment with COLO 205 colon was greater than 150 µg/mL; with IGROV1 ovarian, 63.3 µg/mL; with MOLT-4 leukemia, 123 µg/mL; in the experiment on PC-3 prostate, 79.6 µg/mL; with SK-MEL-28 melanoma, 60.4 µg/mL; in the experiment with SNB-75 CNS, 45.8 µg/mL. Moreover, the TGI was greater than 150 µg/mL with SR leukemia and 44.8 µg/mL in the experiment on U251 CNS.
`CC(=O)O[C@H]1C(=O)[C@@]2(C)[C@H]([C@H](OC(=O)c3ccccc3)[C@]3(O)C[C@H](OC(=O)[C@H](O)[C@@H](NC(=O)CC(C)(C)C)c4ccccc4)C(C)=C1C3(C)C)C1(OC(C)=O)CO[C@@H]1C[C@@H]2O` (some centres undefined): the TGI with COLO 205 colon is 0.012 µM; in the experiment with IGROV1 ovarian, greater than 10 µM; with MOLT-4 leukemia, greater than 3.96 µM; in the experiment with NCI-H226 lung, greater than 5.23 µM; with PC-3 prostate, greater than 10 µM; with SK-MEL-28 melanoma, greater than 10 µM. Also, in the experiment with SNB-75 CNS, the TGI is 0.0154 µM.
`C=CC[C@@]1(C(=O)OC)[C@H](Sc2ccccc2)C1(C)C`: the TGI was greater than 100 µM in the experiment with COLO 205 colon; greater than 100 µM with IGROV1 ovarian; 34.3 µM in the experiment with MOLT-4 leukemia; greater than 100 µM in the experiment on NCI-H226 lung; 87.9 µM in the experiment with NCI-H522 lung; greater than 100 µM in the experiment with PC-3 prostate. For the same molecule, the TGI in the experiment on SK-MEL-28 melanoma is greater than 100 µM; in the experiment on SNB-75 CNS it was 80.8 µM; with U251 CNS, greater than 100 µM.
On to `c1ccc2c(c1)nc1n2CCSC1`, for which the TGI in the experiment on COLO 205 colon, in the experiment with IGROV1 ovarian, with MOLT-4 leukemia, in the experiment on PC-3 prostate, with SK-MEL-28 melanoma and with SNB-75 CNS was greater than 100 µM throughout. For the same molecule, the TGI in the experiment with SR leukemia and with U251 CNS was greater than 100 µM in each case.
Take `COc1cc2c(cc1OC)-c1c3c(cc4c1[C@@H](C2)N(C)CC4)OCO3`: the TGI in the experiment with COLO 205 colon stood at 32.1 µM; in the experiment on IGROV1 ovarian it was 49.9 µM; with MOLT-4 leukemia, 12 µM; with NCI-H226 lung, 23 µM; with NCI-H522 lung, 21.1 µM; with SK-MEL-28 melanoma, 24.9 µM. Also, the TGI in the experiment on SNB-75 CNS amounted to 23.9 µM; with U251 CNS it was 48.8 µM.
In the case of `NCCCCNCCCNC(=O)c1nc(-c2csc(CCN)n2)sc1Cl`, the TGI in the experiment with COLO 205 colon, with IGROV1 ovarian, with MOLT-4 leukemia, with NCI-H226 lung, in the experiment on NCI-H522 lung and in the experiment on SK-MEL-28 melanoma was greater than 100 µM in each case. For the same molecule, the TGI with SNB-75 CNS, in the experiment with SR leukemia and in the experiment with U251 CNS was greater than 100 µM in each case.
Take `CCc1ccc2c(c1)CC1(C2)Cc2cc3c(cc2C1)C(=O)CC3` (centres undefined): the TGI in the experiment on COLO 205 colon is 17.5 µM; in the experiment on IGROV1 ovarian, greater than 100 µM; in the experiment with NCI-H226 lung, 67 µM; in the experiment on NCI-H522 lung it was 57.3 µM; in the experiment with PC-3 prostate, 64.1 µM; in the experiment with U251 CNS, greater than 100 µM.
With `CC1(Cl)CC2C(CC1Sc1nnnn1-c1ccccc1)C2(C)C` (centres undefined), the TGI in the experiment with COLO 205 colon, in the experiment on IGROV1 ovarian, with MOLT-4 leukemia, in the experiment on NCI-H226 lung, in the experiment with SK-MEL-28 melanoma and in the experiment on SR leukemia was greater than 100 µM each time.
In the case of `Cn1nc(S(N)(=O)=O)s/c1=N/C(N)=S`, the TGI in the experiment on COLO 205 colon, in the experiment on MOLT-4 leukemia, with NCI-H226 lung, in the experiment with NCI-H522 lung, in the experiment with SK-MEL-28 melanoma and with SR leukemia was greater than 100 µM throughout. In the experiment with U251 CNS, the TGI is greater than 100 µM.
For `COc1ccc(OC)c2c1C1CCC(=O)N1CN2C(C)=O` (centres undefined), the TGI in the experiment on COLO 205 colon, with IGROV1 ovarian, in the experiment with MOLT-4 leukemia, in the experiment on NCI-H226 lung, in the experiment with NCI-H522 lung and in the experiment with PC-3 prostate was greater than 100 µM throughout. For the same molecule, the TGI in the experiment with SK-MEL-28 melanoma, in the experiment with SNB-75 CNS and in the experiment on U251 CNS was greater than 100 µM throughout.
Turning to `CCO/C(O)=C(/C(=N)N1CCCC1)C(=O)Nc1cccc(C(F)(F)F)c1`, the TGI with COLO 205 colon is greater than 100 µM; with IGROV1 ovarian it was greater than 100 µM; in the experiment with MOLT-4 leukemia it was greater than 100 µM; in the experiment on NCI-H226 lung, 83.7 µM; in the experiment with NCI-H522 lung, greater than 100 µM; in the experiment with PC-3 prostate it was greater than 100 µM. For the same molecule, the TGI in the experiment with SK-MEL-28 melanoma was greater than 100 µM; in the experiment on SNB-75 CNS it was 85.1 µM; with U251 CNS, greater than 100 µM.
Take `Cn1cnc2c(sc3nc4ccccc4n32)c1=N`: the TGI in the experiment with COLO 205 colon, with IGROV1 ovarian, with MOLT-4 leukemia, in the experiment with NCI-H226 lung, in the experiment with PC-3 prostate and in the experiment on SK-MEL-28 melanoma was greater than 100 µM throughout. Also, the TGI in the experiment on SNB-75 CNS is 73.8 µM; in the experiment with U251 CNS it was greater than 100 µM.
With `Cc1c2c(OCCCCN3CCN(c4ncccn4)CC3)nn(C)c(=O)c2c(C)n1-c1ccccc1`, the TGI in the experiment with COLO 205 colon is 34.8 µM; with IGROV1 ovarian it was 35 µM; in the experiment on MOLT-4 leukemia, 84.6 µM; in the experiment on NCI-H226 lung it was 40.8 µM; with NCI-H522 lung it was 38.2 µM; in the experiment with PC-3 prostate it was 37.3 µM. Moreover, the values for the TGI with SK-MEL-28 melanoma, in the experiment with SNB-75 CNS and in the experiment with U251 CNS were 34.5 µM, 39.4 µM and 32 µM, respectively.
As for `CC(C)OP(=O)(OC(C)C)C(C(C)C)N(C)/C(F)=N/C(F)(F)F` (centres undefined), the TGI in the experiment with COLO 205 colon, in the experiment on IGROV1 ovarian, with MOLT-4 leukemia, in the experiment on NCI-H226 lung, with NCI-H522 lung and in the experiment on PC-3 prostate was greater than 100 µM throughout. In addition, the TGI in the experiment with SK-MEL-28 melanoma, in the experiment with SNB-75 CNS and in the experiment on U251 CNS was greater than 100 µM throughout.
